Literature values, collected in patent US20130102635A1, “Methods for Treating Disorders Associated with Hyperlipidemia in a Mammal” (priority 2005, published 2013).
“Also recorded” adds a separate entry of the source. Like-named read-outs stand apart in the source and are kept apart here.

Experiments:
[1] = clinical studies, 80 mg/day or greater
[2] = animal model for homozygous FH, for example at 25 mg/day

| Structure (SMILES) | adverse events (clinical studies, implitapide 80 mg/day or greater) | adverse events (implitapide 80 mg/day and 160 mg/day) | therapeutic effectiveness [1] | adverse events (patients, 25 mg/day BMS-201038) | reduction of plasma cholesterol levels [2] |
| --- | --- | --- | --- | --- | --- |
| Cc1cc(C)c2c3ccccc3n(Cc3ccc([C@@H](C(=O)N[C@H](CO)c4ccccc4)C4CCCC4)cc3)c2n1 [implitapide, (2S)-2-cyclopentyl-2-[4-[(2,4-dimethyl-9H-pyrido[2,3-b]indol-9-yl)methyl]phenyl]-N-[(1S)-2-hydroxy-1-phenylethyl]ethanamide] | gastrointestinal disturbances, abnormalities in liver function, and hepatic steatosis | gastrointestinal disorders, abnormalities in liver function and/or hepatic steatosis | therapeutically effective |  |  |
| O=C(NC1CCN(CCCCC2(C(=O)NCC(F)(F)F)c3ccccc3-c3ccccc32)CC1)c1ccccc1-c1ccc(C(F)(F)F)cc1 [BMS-201038, N-(2,2,2-Trifluorethyl)-9-[4-[4-[[[4′-(trifluoromethyl)[1,1′biphenyl]-2-Yl]carbonyl]amino]-1-piperidinyl]butyl] 9H-fluorene-9-carboxamide] |  |  |  | gastrointestinal disturbances, abnormalities in liver function, and hepatic steatosis; also recorded: gastrointestinal disorders, abnormalities in liver function and/or hepatic steatosis | effectively reduced plasma cholesterol levels in a dose dependent manner |
